In ChEMBL document CHEMBL1201862, “PubChem BioAssay data set” (2004):
Values joined by “and” are separate entries in the source; they are usually repeats but may differ in a detail not shown here. Equal entries are not always repeated.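 All cell lines were grown in 96-well plates and treated with compound for 48 hours. GI50 = concentration required for 50% inhibition of growth.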 Active and inactive are the calls of the source. Rule as the data show it: active = GI50 up to about 1.1 µM and inactive = higher.

Assays:
Assay in all cases: NCI tumour cell line growth inhibition, 48 h
[1] = system: UACC-62
[2] = system: NCI/ADR-RES
[3] = system: U-251
[4] = system: BT-549
[5] = system: K562
[6] = system: COLO 205
[7] = system: SK-MEL-28
[8] = system: CAKI-1
[9] = system: T47D
[10] = system: UO-31
[11] = system: CCRF-CEM
[12] = system: OVCAR-5
[13] = system: Hs-578T
[14] = system: A549
[15] = system: HL-60
[16] = system: NCI-H23
[17] = system: PC-3
[18] = system: RPMI-8226
[19] = system: OVCAR-4
[20] = system: HOP-92

Row | SMILES | GI50 [1] | GI50 [2] | GI50 [3] | GI50 [4] | GI50 [5] | GI50 [6] | GI50 [7] | GI50 [8] | GI50 [9] | GI50 [10] | GI50 [11] | GI50 [12] | GI50 [13] | GI50 [14] | GI50 [15] | GI50 [16] | GI50 [17] | GI50 [18] | GI50 [19] | GI50 [20]
1 | O=C(NCCNCCO)N/N=C/c1ccc(Cl)cc1 | > 100 µM (inactive) | > 100 µM (inactive) | > 100 µM (inactive) | > 100 µM (inactive) | > 100 µM (inactive) | > 100 µM (inactive) | > 100 µM (inactive) | > 100 µM (inactive) | > 100 µM (inactive) | > 100 µM (inactive) | > 100 µM (inactive) | > 100 µM (inactive) | > 100 µM (inactive) | > 100 µM (inactive) | > 100 µM (inactive) | > 100 µM (inactive) | > 100 µM (inactive) |  |  | 
2 | CSC(=O)c1sc(SC)[n+](-c2ccccc2)c1O | 15.6 µM (inactive) | 30.3 µM (inactive) | 16.5 µM (inactive) | 15.1 µM (inactive) | 16.6 µM (inactive) | 27.7 µM (inactive) | 17.7 µM (inactive) |  | 7.35 µM (inactive) | 17.3 µM (inactive) | 8.28 µM (inactive) | 18.7 µM (inactive) | 28.3 µM (inactive) | > 100 µM (inactive) | > 10 µM (inactive) | 17.7 µM (inactive) | 14 µM (inactive) | 21.5 µM (inactive) | 12.1 µM (inactive) | 
3 | Cc1ccc(N2C=Nn3c(nc4sc5c(c4c3=O)CCCC5)C2)cc1 | > 100 µM (inactive) | 70.3 µM (inactive) | 46.7 µM (inactive) | > 100 µM (inactive) | 38.5 µM (inactive) | 67.8 µM (inactive) | 93.5 µM (inactive) | 46 µM (inactive) | 43.3 µM (inactive) | > 100 µM (inactive) | 45.2 µM (inactive) | 62.5 µM (inactive) | 28.1 µM (inactive) | 47.4 µM (inactive) |  | 41.7 µM (inactive) | 49.4 µM (inactive) | 32.1 µM (inactive) | 37.8 µM (inactive) | > 100 µM (inactive)
4 | COc1ccc(-c2c(/C=N/OCC(=O)O)c3sc4ccccc4n3c2/C=N/OCC(=O)O)cc1 | > 50 µM (inactive) | > 50 µM (inactive) | > 50 µM (inactive) | > 50 µM (inactive) | > 50 µM (inactive) | > 50 µM (inactive) | > 50 µM (inactive) | > 50 µM (inactive) | > 50 µM (inactive) | 11.9 µM (inactive) | > 50 µM (inactive) | > 50 µM (inactive) | > 50 µM (inactive) | > 50 µM (inactive) |  | > 50 µM (inactive) | > 50 µM (inactive) |  | > 50 µM (inactive) | 21.8 µM (inactive)
5 | Oc1ccc(-c2cc(-c3c(O)cc(O)cc3O)on2)cc1 | 31.3 µM (inactive) | > 100 µM (inactive) | 64.7 µM (inactive) | 54.5 µM (inactive) | 40.5 µM (inactive) | > 10 µM (inactive) | 52.8 µM (inactive) | 94.6 µM (inactive) | 45.5 µM (inactive) | 53 µM (inactive) | 23.2 µM (inactive) | > 100 µM (inactive) | 38.2 µM (inactive) | 54.2 µM (inactive) | > 100 µM (inactive) | > 100 µM (inactive) | 48 µM (inactive) | 44.9 µM (inactive) | > 100 µM (inactive) | 
6 | NC(=S)N/N=C1\CCCC1C(O)(C(F)(F)Cl)C(F)(F)Cl (stereo not given) | 8.63 µM (inactive) | > 10 µM (inactive) | > 10 µM (inactive) | > 10 µM (inactive) | > 10 µM (inactive) | > 10 µM (inactive) | > 10 µM (inactive) | > 10 µM (inactive) | > 10 µM (inactive) |  | > 10 µM (inactive) | > 10 µM (inactive) | > 10 µM (inactive) | > 10 µM (inactive) |  | > 10 µM (inactive) | > 10 µM (inactive) | > 10 µM (inactive) | > 10 µM (inactive) | > 10 µM (inactive)
7 | CC12CC(c3ccccc3O1)C(C(=O)Nc1cccc(F)c1)C(=O)N2 (stereo not given) | 52.6 µM (inactive) | 26.6 µM (inactive) | > 100 µM (inactive) | 23.5 µM (inactive) | 35.4 µM (inactive) | 62.7 µM (inactive) | 78.2 µM (inactive) | 92.3 µM (inactive) | 25.2 µM (inactive) | 7.78 µM (inactive) | 26.3 µM (inactive) | > 100 µM (inactive) | > 100 µM (inactive) | 52.1 µM (inactive) | 30.5 µM (inactive) | 17.3 µM (inactive) | 49.1 µM (inactive) | 40.7 µM (inactive) | 30.1 µM (inactive) | 
8 | C=CCN(c1cc(OC)c2c(c1[N+](=O)[O-])C(C)(SC)C(=O)N2)S(C)(=O)=O (stereo not given) | 71.4 µM (inactive) | > 100 µM (inactive) | > 100 µM (inactive) | > 100 µM (inactive) | > 100 µM (inactive) | > 100 µM (inactive) | > 100 µM (inactive) | > 100 µM (inactive) | > 100 µM (inactive) | > 100 µM (inactive) |  |  | 55.5 µM (inactive) | > 100 µM (inactive) |  | > 100 µM (inactive) | > 100 µM (inactive) | 94 µM (inactive) | 47.8 µM (inactive) | 32.5 µM (inactive)
9 | C=C1CC[C@@H]2[C@](C)(COC(=O)CCC(=O)OC)CCC[C@@]2(C)[C@@H]1CCC1=CC(=O)OC1 |  | 72.8 µM (inactive) | > 100 µM (inactive) | 64.9 µM (inactive) | 29 µM (inactive) | 77.8 µM (inactive) | > 100 µM (inactive) | 26.2 µM (inactive) | 29.2 µM (inactive) | > 100 µM (inactive) | 28.2 µM (inactive) | > 100 µM (inactive) | 77.6 µM (inactive) | > 100 µM (inactive) | 20.3 µM (inactive) | > 100 µM (inactive) | 41 µM (inactive) | 16.1 µM (inactive) | > 100 µM (inactive) | 
10 | O=c1c(Cl)c(Cl)cnn1-c1ccccc1 | 1.67 µM (inactive) and 2.21 µM (inactive) | 2 µM (inactive) | 3.51 µM (inactive) and 1.79 µM (inactive) | 1.8 µM (inactive) and 1.73 µM (inactive) | 968 nM (active) and 929 nM (active) |  | 3.4 µM (inactive) and 2.3 µM (inactive) |  | 4.33 µM (inactive) and 2.44 µM (inactive) | 4.18 µM (inactive) and 3.56 µM (inactive) |  |  | 1.54 µM (inactive) and 2.56 µM (inactive) | 20.3 µM (inactive) and 10.8 µM (inactive) | 893 nM (active) and 1.09 µM (active) |  |  | 5.92 µM (inactive) and 7.26 µM (inactive) | 2.19 µM (inactive) and 1.53 µM (inactive) | 
11 | CC(C)=CCC[C@](C)(O[C@@H]1O[C@H](CO)[C@@H](O)[C@H](O)[C@H]1O)[C@H]1CC[C@]2(C)[C@@H]1[C@H](O)C[C@@H]1[C@@]3(C)CC[C@H](O)C(C)(C)[C@@H]3[C@@H](O[C@@H]3O[C@H](CO)[C@@H](O)[C@H](O)[C@H]3O)C[C@]12C [GINSENOSIDE RG1] | > 100 µM (inactive) |  | > 100 µM (inactive) | > 100 µM (inactive) | > 100 µM (inactive) | > 100 µM (inactive) | > 100 µM (inactive) | > 100 µM (inactive) | > 100 µM (inactive) | > 100 µM (inactive) | > 100 µM (inactive) | > 100 µM (inactive) | > 100 µM (inactive) | > 100 µM (inactive) | > 100 µM (inactive) | > 100 µM (inactive) | > 100 µM (inactive) | > 100 µM (inactive) | > 100 µM (inactive) | > 100 µM (inactive)
